In US20260224716A1, “PTH ANALOGS FOR THE TREATMENT OF HYPOPARATHYROIDISM” (priority 2020, published 2026):
Where a SMILES comes first, the peptide text is derived from it. [ ]: non-standard residue; d: D form. NMeH = CN[C@@H](Cc1c[nH]cn1)C(=O)O; Aib = CC(C)(N)C(=O)O

Assays:
[1] = Rate of model dipeptide cleavage from hexapeptide in PBS (HPLC, LC-MS); assay type: physicochemical; conditions: buffer
Procedure: The solution was incubated at 37° C.
The flow rate was 1 ml/min.

serum calcium = experiment: Pharmacology in normal mice: serum calcium (Example 6); assay type: in vivo, C57Bl6/J mice; conditions: FIG. 5C, 20 or 40 nmol/kg SC, 24 and 48 hours
Procedure: Each group of mice was bled immediately before the injection and after 24 and 48 hours. Blood was centrifuges and serum was collected and stored at −20 C. Calcium concentrations were determined used commercially available assays following the manufacturer's instructions.

[2] = system: calcium urinary excretion; conditions: humans, 100 ug subcutaneous; adequate control limited to only ⅓ of the day; cited from earlier work

half-life at 1 mg/ml [1] [h]	Molecule	further results
58	C[C@H](NC(=O)[C@@H]1CCCN1C(=O)C(C)(C)N)C(=O)N[C@@H](CO)C(=O)N[C@@H](CCCNC(=N)N)C(=O)NCC(=O)N[C@H](C(=O)N[C@@H](Cc1ccccc1)C(N)=O)[C@@H](C)O [compound 22] (H-[Aib]PASRGTF-NH2)	–
30	C[C@@H](O)[C@H](NC(=O)CNC(=O)[C@H](CCCNC(=N)N)NC(=O)[C@H](CO)NC(=O)[C@H](Cc1c[nH]cn1)N(C)C(=O)[C@@H]1CCCN1C(=O)C(C)(C)N)C(=O)N[C@@H](Cc1ccccc1)C(N)=O [compound 23] (H-[Aib]P[NMeH]SRGTF-NH2)	–

Continued, molecule first:

Molecule	half-life at 1 mg/ml [1] [h]	further results
SVSEIQLMHNLGKHLNSMERVEWLRKKLQDVHK(γE-COC16H32CO2H)-OH [SEQ ID NO: 74]	–	effect on serum calcium levels (serum calcium): increase serum calcium levels
Natpara: NPS/Shire's Natpara® (rhPTH), approved by the FDA in January of 2015 (protein, listed as Homo sapiens) SVSEIQLMHNLGKHLNSMERVEWLRKKLQDVHNFVALGAPLAPRDAGSQRPRKKEDNVLVESHEKSLGEADKADVNVLTKAKSQ	–	duration of action on calcium [2]: insufficient duration of action
